Earlier results, collected in US5973199A, “Hydrosoluble organic salts of creatine” (priority 1994, dated 1999).

Tests used:
[1] = not given; remark: listed apart in the source

CN(CC(=O)O)C(=N)N [creatine, N-(aminoiminomethyl)-N-methylglycine]
creatine half-life in plasma: 1 to 1.5 h
tolerability of high doses ([1]; high doses of 5-10 g (mean body weights of 70 kg)): well tolerated
toxicity ([1]; in vivo): lack of toxicity
